Reference: US20070218002A1, “Method for Detecting Alzheimer's Disease and other Forms of Dementia, and Measuring Their Progression” (priority 2004, published 2007)
Several values for one entry are separate records, joined by “and”; a condition that tells them apart may be missing. Equal entries are not always repeated.

What was measured:
glucose metabolism = test: [F-18]FDG PET, relative standardized uptake value; assay type: in vivo, human; conditions: normalized to motor cortex
Protocol: (§1) All scans were performed with ECAT HR or ECAT HR+ scanners (Siemens-CTI, Knoxville, Tenn.). The subjects were in the supine position with the imaging plane parallel to the orbito-meatal line and with their eyes open and ears unoccluded. A 20 min transmission scan was performed to correct PET data for radiation attenuation. 320-550 MBq of a PET tracer was injected as a bolus injection via the in-dwelling venous catheter, and the consecutive dynamic head PET scans were performed for 1 hour with [F-18]FDG or for 2 hours with [F-18]MPPF or with [F-18]FDDNP.
(§2) All PET scans were decay corrected and reconstructed using filtered-back projection (Hann filter, 5 mm FWHM) with scatter and attenuation correction. The resulting images contained either 47 contiguous slices with 3.4 mm plane-to-pane separation (EXACT HR) or 63 contiguous slices with the plane-to-plane separation of 2.42 mm (EXACT HR+).
The dynamic [F-18]FDG PET images were summed (frames 30-60min) and the resulting image was used for the following analysis: ROIs were drawn bilaterally on transaxially oriented images on the gray matter signal in the frontal lobe, parietal lobe, lateral temporal lobe, and medial temporal lobe. In addition, one ROI was drawn on the posterior cingulated gyrus. ROIs were also drawn bilaterally on the motor cortex as a reference region. Values for each ROI were extracted and relative standardized uptake values were calculated for each region separately. The average of both ROIs from the same region was divided by the average of ROI values for the motor cortex. In a similar way, the ROI value for the posterior cingulated gyrus was normalized by the average value for motor cortex. Finally the global [F-18]FDG SUVR index was calculated for the parietal, medial temporal, and lateral temporal lobes.

5-HT1A receptors = biological target: T1, 5-HT1A receptors (Homo sapiens, UniProt P08908); test: In vitro [F-18]MPPF digital autoradiography on whole-hemisphere brain cryosections; assay type: binding
T1 construct: Glass mounted whole-hemisphere brain cryosections (100 μm thick), cut at the level of hippocampus; from tissue; host or cells: post-mortem human brain, whole-hemisphere cryosections at the level of the hippocampus
T1 sequence (P08908 1-422): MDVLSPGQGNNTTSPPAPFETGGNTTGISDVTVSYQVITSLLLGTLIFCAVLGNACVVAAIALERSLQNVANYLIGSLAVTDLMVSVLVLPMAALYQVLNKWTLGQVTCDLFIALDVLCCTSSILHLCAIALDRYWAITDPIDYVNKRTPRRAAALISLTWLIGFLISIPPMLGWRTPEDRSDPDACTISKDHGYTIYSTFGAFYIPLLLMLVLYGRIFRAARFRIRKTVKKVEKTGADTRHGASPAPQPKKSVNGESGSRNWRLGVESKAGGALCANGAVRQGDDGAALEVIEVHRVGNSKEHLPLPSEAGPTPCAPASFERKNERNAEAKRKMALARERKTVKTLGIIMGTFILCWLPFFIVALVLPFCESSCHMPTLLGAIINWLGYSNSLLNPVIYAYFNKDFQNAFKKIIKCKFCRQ

[1] = biological target: T2, serotonin 5-HT1A receptors (Homo sapiens, UniProt P08908); test: [F-18]MPPF PET, Logan plot quantitation of binding potential; assay type: in vivo
T2 construct: from tissue; host or cells: living human brain (in vivo PET; hippocampus, raphe nuclei, cortical regions)
T2 sequence (P08908 1-422): T1 sequence (P08908 1-422)
Protocol: as §1, §2
Anatomical brain magnetic resonance scans were obtained using either a 1.5 Tesla magnet (General Electric-Signa, Milwaukee, Wis.) or a 3 Tesla magnet (General Electric-Signa) scanner. […] A double echo, fast spin echo series using a 24-cm field of view and 256×256 matrix with 3 mm/0 gap (TR=6000 [3T] and 2000 [1.5T]; TE=17/85 [3T] and 30/90 [1.5T]) An inter-modality image co-registration program (7) that uses image segmentation and simulation as preprocessing procedures was used to co-register PET and anatomical MRI images of each subject. Rules for ROI drawing were based on the identification of gyral and sulcal landmarks with respect to the atlas of Talairach and Tournoux (8).
Quantitation of [F-18]MPPF binding was performed using Logan plot graphical analysis, using the cerebellum, an area largely devoid of 5-HT1A receptors, as the reference region (9). […] Tracer binding potential (BP=Bmax/Kd) parametric images were analyzed using ROIs drawn bilaterally on hippocampus, lateral temporal lobe, parietal lobe, frontal lobe, and posterior cingulate cortex, and a single ROI on the dorsal raphe nucleus using MRI as a guide. Total binding potentials (BPT, BPT=BP×volume) were determined for left and right hippocampus by multiplying the hippocampal BP values with the hippocampus volumes on co-registered MRI.

[2] = AD subjects compared to control subjects

OC[C@H]1OC(O)[C@H]([18F])[C@@H](O)[C@@H]1O (stereo partly drawn) [[F-18]FDG, 2-deoxy-2-[F-18]fluoro-D-glucose]
FDG mean SUVR ± 1 SD, Frontal Lobe (glucose metabolism; AD group): 0.79 ± 0.07 | FDG mean SUVR ± 1 SD, Global (glucose metabolism; AD group): 0.66 ± 0.04 | FDG mean SUVR ± 1 SD, Lateral Temporal Lobe (glucose metabolism; AD group): 0.66 ± 0.07 | FDG mean SUVR ± 1 SD, Medial Temporal Lobe (glucose metabolism; AD group): 0.66 ± 0.04 | FDG mean SUVR ± 1 SD, Parietal Lobe (glucose metabolism; AD group): 0.67 ± 0.09 | FDG mean SUVR ± 1 SD, Posterior Cingulate Gyrus (glucose metabolism; AD group): 0.79 ± 0.11 | FDG mean SUVR ± 1 SD, Frontal Lobe (glucose metabolism; CTRL group): 0.95 ± 0.08 | FDG mean SUVR ± 1 SD, Global (glucose metabolism; CTRL group): 0.80 ± 0.04 | FDG mean SUVR ± 1 SD, Lateral Temporal Lobe (glucose metabolism; CTRL group): 0.86 ± 0.06 | FDG mean SUVR ± 1 SD, Medial Temporal Lobe (glucose metabolism; CTRL group): 0.73 ± 0.02 | FDG mean SUVR ± 1 SD, Parietal Lobe (glucose metabolism; CTRL group): 0.89 ± 0.06 | FDG mean SUVR ± 1 SD, Posterior Cingulate Gyrus (glucose metabolism; CTRL group): 1.05±0.09 | FDG mean SUVR ± 1 SD, Posterior Cingulate Gyrus (glucose metabolism; CTRL group, listed as FDG): 1.05 ± 0.09 | FDG mean SUVR ± 1 SD, Frontal Lobe (glucose metabolism; MCI group): 0.90 ± 0.02 | FDG mean SUVR ± 1 SD, Global (glucose metabolism; MCI group): 0.77 ± 0.04 | FDG mean SUVR ± 1 SD, Lateral Temporal Lobe (glucose metabolism; MCI group): 0.81 ± 0.05 | FDG mean SUVR ± 1 SD, Medial Temporal Lobe (glucose metabolism; MCI group): 0.69 ± 0.03 | FDG mean SUVR ± 1 SD, Parietal Lobe (glucose metabolism; MCI group): 0.84 ± 0.05 | FDG mean SUVR ± 1 SD, Posterior Cingulate Gyrus (glucose metabolism; MCI group): 0.89±0.06 | FDG mean SUVR ± 1 SD, Posterior Cingulate Gyrus (glucose metabolism; MCI group, listed as FDG): 0.89 ± 0.06

COc1ccccc1N1CCN(CCN(C(=O)c2ccc([18F])cc2)c2ccccn2)CC1 [[F-18]MPPF, 4-[F-18]fluoro-N-{2-[1-(2-methoxyphenyl)-piperazinyl]ethyl}-N-(2-pyridinyl)benzamide]
binding ratio (BR), outer layers of gray matter in the inferior temporal gyrus (5-HT1A receptors; AD cases (individual)): 1.13 and 1.16 | hippocampal binding ratio (BR), CA1 field/subiculum relative to inner layer of inferior temporal gyrus gray matter (5-HT1A receptors; AD samples (individual)): 1.03 and 1.18 | drop in in vitro binding, hippocampus (5-HT1A receptors; AD vs control samples): 60-70% | hippocampal binding ratio (BR), CA1 field/subiculum relative to inner layer of inferior temporal gyrus gray matter (5-HT1A receptors; control samples (individual)): 3.29 and 3.00 and 2.98 | binding ratio (BR), outer layers of gray matter in the inferior temporal gyrus (5-HT1A receptors; non-demented cases (individual)): 1.46 and 1.40 and 2.01 | hippocampus total binding potential (BPT=BP×volume) ([1]; AD): 2.24±0.61 | [F-18]MPPF mean BP ± 1 SD, Frontal Lobe ([1]; AD group): 0.41 ± 0.13 | [F-18]MPPF mean BP ± 1 SD, Lateral Temporal Lobe ([1]; AD group): 0.73 ± 0.16 | [F-18]MPPF mean BP ± 1 SD, Parietal Lobe ([1]; AD group): 0.48 ± 0.13 | [F-18]MPPF mean BP ± 1 SD, Posterior Cingulate Gyrus ([1]; AD group): 0.56 ± 0.20 | MPPF accumulation in the hippocampi ([1]; AD patients in general): ≤ 50% | drop in dorsal raphe nucleus BP values [1, 2]: 41% | drop in hippocampus BP values [1, 2]: 27% | hippocampus BPT lower compared with controls ([1]; ADs): 49% | [F-18]MPPF mean BP ± 1 SD, Frontal Lobe ([1]; Control group): 0.49 ± 0.15 | [F-18]MPPF mean BP ± 1 SD, Hippocampus ([1]; Control group): 1.62±0.07 | [F-18]MPPF mean BP ± 1 SD, Lateral Temporal Lobe ([1]; Control group): 0.82 ± 0.17 | [F-18]MPPF mean BP ± 1 SD, Parietal Lobe ([1]; Control group): 0.63 ± 0.15 | [F-18]MPPF mean BP ± 1 SD, Posterior Cingulate Gyrus ([1]; Control group): 0.68 ± 0.06 | [F-18]MPPF mean BP ± 1 SD, Raphe Nuclei ([1]; Control group): 0.63±0.09 | hippocampus total binding potential (BPT=BP×volume) ([1]; MCI): 3.14±0.34 | [F-18]MPPF mean BP ± 1 SD, Frontal Lobe ([1]; MCI group): 0.44 ± 0.12 | [F-18]MPPF mean BP ± 1 SD, Lateral Temporal Lobe ([1]; MCI group): 0.80 ± 0.11 | [F-18]MPPF mean BP ± 1 SD, Parietal Lobe ([1]; MCI group): 0.43 ± 0.11 | [F-18]MPPF mean BP ± 1 SD, Posterior Cingulate Gyrus ([1]; MCI group): 0.56 ± 0.12 | [F-18]MPPF mean BP ± 1 SD, Raphe Nuclei ([1]; MCI group): 0.52 ± 0.11 | mean hippocampus BP value lower than in controls ([1]; MCI subjects): 13% | hippocampus BPT lower compared with controls ([1]; MCIs): 24% | hippocampus total binding potential (BPT=BP×volume) ([1]; controls): 4.40±0.22
